Source: PMC12131788, “Discovery of natural CdnP inhibitors through structure-based virtual screening and molecular dynamics simulations” (Microbiology Spectrum, 2025)

Assays:
CdnP (Rv2837c) = target: T1, CdnP (Rv2837c) (Mycobacterium tuberculosis, UniProt P71615); experiment: High-throughput enzymatic activity assay (coralyne/c-di-AMP fluorescence); format: biochemical; conditions: for IC50: 100 nM CdnP, 15 µM c-di-AMP, 37°C, read-out: IC50 (half maximal inhibitory concentration); for inhibitory activity against CdnP: at concentrations as high as 1 mM (data not shown)
T1 construct: pET32a vector-encoded fusion (Trx / His6 / S-tag; composition from own knowledge of the vector, His tag consistent with Ni-NTA purification) (N); made in house; host or cells: Escherichia coli BL21(DE3)
T1 sequence (P71615 whole entry, the tested form may be a part): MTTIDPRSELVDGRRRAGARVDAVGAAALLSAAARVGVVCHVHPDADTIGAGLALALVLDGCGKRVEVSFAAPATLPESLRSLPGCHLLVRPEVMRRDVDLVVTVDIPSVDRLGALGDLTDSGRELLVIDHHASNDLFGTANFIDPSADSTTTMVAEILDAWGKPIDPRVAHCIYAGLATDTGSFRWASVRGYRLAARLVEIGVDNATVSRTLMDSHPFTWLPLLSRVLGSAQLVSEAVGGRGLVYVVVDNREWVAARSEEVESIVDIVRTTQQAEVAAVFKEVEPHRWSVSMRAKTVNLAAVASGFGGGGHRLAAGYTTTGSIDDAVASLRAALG

CdnP [1] = target: T2, CdnP (Mycobacterium tuberculosis, UniProt P71615); experiment: Surface plasmon resonance (SPR) binding assay; conditions: for kon: read-out: 1:1 binding ka
T2 sequence (P71615 whole entry, looked up): as the sequence (P71615 whole entry, the tested form may be a part) above
Method: Binding affinity between CdnP and test compounds was determined using a Biacore 1K instrument (Cytiva). Recombinant CdnP was immobilized on a Series S CM5 sensor chip according to manufacturer’s protocols. Association and dissociation kinetics were measured using a pre-established multi-cycle kinetics/affinity protocol with eight serially diluted compound concentrations in running buffer (10 mM HEPES, pH 7.4, 150 mM NaCl, 3 mM EDTA, 0.005% [vol/vol] Surfactant P20, and 5% [vol/vol] DMSO). Binding data were analyzed using the multi-cycle kinetics model to determine association rate (Ka), dissociation rate (Kd), and equilibrium dissociation constant (KD) values.

CdnP [2] = target: T2, CdnP; conditions: cited from earlier work
[3] = 1:1 binding, multi-cycle kinetics

Question: With `COc1ccc([C@]2(C#N)CC[C@@H](C(=O)O)CC2)cc1OC1CCCC1` [Cilomilast, reference compound] as the compound, how does the IC50 (CdnP (Rv2837c)) read?
Answer: > 1000 µM

Question: And the “inhibitory activity against CdnP” value (CdnP (Rv2837c))?
Answer: no detectable inhibitory activity

Question: And the “Quality kinetics Chi^2” value (CdnP [1])?
Answer: 3.17e-01 RU^2

Question: What about the Rmax (CdnP [1]) of the same compound?
Answer: 1733.5 RU

Question: And the kd (CdnP [1])?
Answer: 0.465 s⁻¹

Question: And the tc (CdnP [1])?
Answer: 6.30e+06

Question: What about the Kd (CdnP [1]; [3]) of the same compound?
Answer: 44200 µM

Question: And the kon (CdnP [1])?
Answer: 10.5 M⁻¹ s⁻¹

Question: What about the “inhibition of CdnP” value (CdnP [2]) of the same compound?
Answer: mild inhibition

Question: Which results are given for `O=C1CCc2cc(OCCCCc3nnnn3C3CCCCC3)ccc2N1` [Cilostazol, reference compound]?
Answer: IC50 (CdnP (Rv2837c)): > 1000 µM; inhibitory activity against CdnP (CdnP (Rv2837c)): no detectable inhibitory activity; Quality kinetics Chi^2 (CdnP [1]): 7.64e-02 RU^2; kd (CdnP [1]): 0.321 s⁻¹; tc (CdnP [1]): 5.48e+09; Kd (CdnP [1]; [3]): 4.18 µM; kon (CdnP [1]): 76700 M⁻¹ s⁻¹; inhibition of CdnP (CdnP [2]): mild inhibition

Question: For `C[C@@H]1O[C@@H](OC[C@H]2O[C@@H](Oc3cc(O)c4c(=O)cc(-c5ccc(O)cc5)oc4c3)[C@H](O[C@@H]3O[C@@H](C)[C@H](O)[C@@H](O)[C@H]3O)[C@@H](O)[C@@H]2O)[C@H](O)[C@H](O)[C@H]1O` [Ligustroflavone], which IC50 (CdnP (Rv2837c)) is on record?
Answer: 39.5 ± 1.74 µM

Question: And the “Quality kinetics Chi^2” value (CdnP [1])?
Answer: 4.90e-02 RU^2

Question: What about the Rmax (CdnP [1]) of the same compound?
Answer: 1.0 RU

Question: What about the kd (CdnP [1]) of the same compound?
Answer: 6.42e-06 s⁻¹

Question: What about the tc (CdnP [1]) of the same compound?
Answer: 1.16e+08

Question: What about the Kd (CdnP [1]; [3]) of the same compound?
Answer: 0.0189 µM

Question: What about the kon (CdnP [1]) of the same compound?
Answer: 339 M⁻¹ s⁻¹

Question: Which results are given for `Cc1cc(O)c2c3c1C(=O)C1c4c(c(O)cc5cc(O)cc(C)c45)[C@@]3(COC2=O)[C@H]1O` [Macrosporusone A]?
Answer: IC50 (CdnP (Rv2837c)): 16.8 ± 0.44 µM; Quality kinetics Chi^2 (CdnP [1]): 2.46e+00 RU^2; kd (CdnP [1]): 1.62e-07 s⁻¹; tc (CdnP [1]): 1.02e+08; kon (CdnP [1]): 254000 M⁻¹ s⁻¹

Question: For `CC(OCCCCOC(C)n1cnc2c(=O)[nH]cnc21)n1cnc2c(=O)[nH]cnc21` (stereo not shown) [NCI 79195], which IC50 (CdnP [2]) is on record?
Answer: 9.66 µM

Question: Which results are given for `COc1ccc(-c2cc(=O)c3c(O)cc(O[C@@H]4O[C@H](CO)[C@@H](O)[C@H](O)[C@H]4O[C@@H]4O[C@@H](C)[C@H](O)[C@@H](O)[C@H]4O)cc3o2)cc1O` [Neodiosmin]?
Answer: IC50 (CdnP (Rv2837c)): 5.5 ± 1.94 µM; Quality kinetics Chi^2 (CdnP [1]): 8.92e-02 RU^2; Rmax (CdnP [1]): 26.8 RU; kd (CdnP [1]): 0.00229 s⁻¹; tc (CdnP [1]): 1.17e+08; Kd (CdnP [1]): 380 µM; Kd (CdnP [1]; [3]): 384 µM; kon (CdnP [1]): 5.95 M⁻¹ s⁻¹

Question: For `C[C@@H]1O[C@@H](O[C@H]2[C@H](Oc3cc(O)c4c(=O)cc(-c5ccc(O)cc5)oc4c3)O[C@H](CO)[C@@H](O)[C@@H]2O)[C@H](O)[C@H](O)[C@H]1O` [Rhoifolin], which IC50 (CdnP (Rv2837c)) is on record?
Answer: 20.3 ± 1.74 µM

Question: And the “Quality kinetics Chi^2” value (CdnP [1])?
Answer: 2.02e-01 RU^2

Question: And the kd (CdnP [1])?
Answer: 0.209 s⁻¹

Question: And the tc (CdnP [1])?
Answer: 1.49e+08

Question: And the Kd (CdnP [1])?
Answer: 0.97 µM

Question: And the Kd (CdnP [1]; [3])?
Answer: 0.972 µM

Question: And the kon (CdnP [1])?
Answer: 215000 M⁻¹ s⁻¹

Question: With `CCCc1nn(C)c2c(=O)[nH]c(-c3cc(S(=O)(=O)N4CCN(C)CC4)ccc3OCC)nc12` [sildenafil] as the compound, how does the “inhibitory activity against CdnP” value (CdnP (Rv2837c)) read?
Answer: no detectable inhibitory activity

Question: What about the “inhibition of CdnP” value (CdnP [2]) of the same compound?
Answer: mild inhibition

Question: Which “inhibitory activity against CdnP” value (CdnP (Rv2837c)) does the source give for `CN1CC(=O)N2[C@H](c3ccc4c(c3)OCO4)c3[nH]c4ccccc4c3C[C@@H]2C1=O` [tadalafil] here?
Answer: no detectable inhibitory activity

Question: What about the “inhibition of CdnP” value (CdnP [2]) of the same compound?
Answer: mild inhibition
